# Reference: patent EP4635958A1, “PYRIMIDINE-CONTAINING POLYCYCLIC DERIVATIVE INHIBITOR, AND PREPARATION METHOD THEREFOR AND USE THEREOF” (Shanghai Hansoh Biomedical Co., Ltd., priority 2022, dated 2024)
# Read-outs that look alike come from different tables or passages of the source.
# How the values were obtained:
# KRAS G12D-SOS1 = target: T1, KRAS G12D-SOS1 (Homo sapiens, UniProt P01116, G12D); experiment: Blocking of KRAS G12D-SOS1 protein binding (Cisbio KRAS-G12D/SOS1 Binding Assay Kit, time-resolved fluorescence); details: KRAS G12D-GTP and SOS1 protein, signal ratio 665nm/620nm; read-out: G12D SOS1 biochemical IC50
# T1 construct: purchased Cisbio 63ADK000CB17PEG
# T1 sequence (P01116 1-188 isoform P01116-2 G12D): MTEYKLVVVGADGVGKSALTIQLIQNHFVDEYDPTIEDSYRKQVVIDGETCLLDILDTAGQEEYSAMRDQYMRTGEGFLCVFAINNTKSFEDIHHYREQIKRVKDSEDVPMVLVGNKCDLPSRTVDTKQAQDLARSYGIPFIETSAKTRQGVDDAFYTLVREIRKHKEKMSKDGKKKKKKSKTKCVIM
# From the text: • 1. Experimental objective: […] Experimental reagents and instruments The centrifuge (5810R) was purchased from Eppendorf; the pipette was purchased from Eppendorf or Rainin; and the microplate reader was purchased from BioTek (United States) with a model of SynergyH1 multifunctional microplate reader. KRAS-G12D/SOS1 Binding Assay Kit was purchased from Cisbio, with a catalog number of 63ADK000CB17PEG; GTP was purchased from Sigma, with a catalog number of G8877; 384-well plate was purchased from Perkin Elmer, with a catalog number of 6007299. The Diluent buffer in the kit was used to dilute the compound into 10× compound solution of different concentrations, and 2 uL was added to each well of the 384-well plate. Tag2-KRAS G12D protein and GTP were formulated into a mixed solution of 5×KRAS G12D-GTP protein using Diluent buffer, and Tag1-SOS1 protein was formulated into a 5×SOS1 protein solution using Diluent buffer. Each solution was added to the 384-well plate separately at 4 uL per well, and incubated at room temperature for 15 min. A mixed solution of 2× anti-Tag1-Tb^3+ and anti-Tag2-XL665 formulated using detection buffer was added to the 384-well plate at 10 µL per well, and incubated at 4°C in the dark for 3 h.
# KRAS WT = KRAS WT (Homo sapiens, UniProt P01116); experiment: KRAS WT biochemical assay (Table 1, no method of its own); format: binding; details: read-out: KRAS WT Biochemical IC50
# Sequence of KRAS WT (P01116 1-188 isoform P01116-2): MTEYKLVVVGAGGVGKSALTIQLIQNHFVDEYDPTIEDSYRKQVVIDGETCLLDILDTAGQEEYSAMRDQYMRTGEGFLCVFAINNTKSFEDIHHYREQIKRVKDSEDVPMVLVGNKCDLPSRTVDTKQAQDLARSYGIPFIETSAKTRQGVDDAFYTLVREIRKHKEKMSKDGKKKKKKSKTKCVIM
# GP2D = experiment: Inhibition of proliferation of KRAS G12D mutant tumor cell line GP2D (CellTiter-Glo); details: read-out: GP2D IC50
# [1] = system: human pancreatic cancer cell line (HPAC); experiment: Antitumor efficacy in mouse transplanted tumor model of human pancreatic cancer cell line (HPAC); format: in vivo, mice (BALB/c nude); details: Table 12, HPAC xenograft, 100mpk, PO*BID; for Tumor volume (mm^3, Mean ± SD) Day 0: Day 0 (baseline)
# From the text: 8-10 week old female conventional immunodeficient mice (BALB/c nude) with a body weight of 18 g-22 g were used as experimental animals, and a transplanted tumor model of human pancreatic cancer cell line (HPAC) was used to conduct in vivo efficacy experiments to test the anti-tumor results of the example compounds after gavage administration.
# The example compounds of the present invention, made in house.
# A certain amount of the example compound was weighed, and an appropriate amount of 10% vehicle (Solutol HS15) was added. The mixture was stirred on a magnetic stirrer for 0.5 h to formulate a homogeneous suspension at the desired concentration.
# Human pancreatic cancer cell line (HPAC) was derived from COBIOER BIOSCIENCES CO., LTD, cultured on DMEM/F12 medium (Gibco, 11330-032) supplemented with 10% fetal calf serum (Gibco, 10091-148), 1×Insulin (51500-056, Gibco) and 10 ng/ml of EGF (PHG0311, Gibco) and observed under a microscope (Thermo Fisher, 311). The cells were routinely passaged when the cells reached 80%-90% confluence in the culture flask. The passaged cells were cultured in a 37°C, 5% CO2 incubator (Thermo Fisher, 311).
# Under aseptic conditions, human pancreatic cancer cells (HPAC) in the logarithmic growth phase were harvested using 0.25% trypsin-EDTA (Gibco, 25200-056), washed and resuspended with phosphate buffer. The cell suspension was mixed with Matrigel (Corning, 356234) at a 1 : 1 ratio (v/v) and implanted subcutaneously into the right anterior dorsal region of immunodeficient mice (BALB/c nude). Each mouse was inoculated with 3*10^6 cells in a volume of 100 microliters (µL). After inoculation, when the tumor volume reached 100-200 mm^3, the mice would be evenly randomized into 5 groups based on the tumor size, with 5 mice per group, for in vivo efficacy experiments. The negative control group was the vehicle group.
# Mode of administration: The example compounds were administered orally.
# Twice a week, the long and short diameters of the tumor were measured using a vernier caliper, and the tumor volume (mm^3) was calculated using the formula: V = 0.5*D*d*d, where D and d are the long and short diameters of the tumor, respectively. The anti-tumor efficacy was determined by dividing the average increase in tumor volume of compound-treated animals by the average increase in tumor volume of untreated animals. The calculation formula for tumor inhibition rate was: When there is no tumor regression, TGI(%) = 100-[(Vt-V0) administration group/(Vt-V0) vehicle control group]*100%. When tumor regression occurs, TGI(%) = [1-(Vt-V0) administration group/V0 vehicle control group]*100%. All animals were euthanized after the experiment.
# p-ERK in AGS cells = experiment: Inhibition of p-ERK in AGS cells (LANCE Ultra phospho-ERK1/2 kit); format: cell-based; details: read-out: AGS_pERK IC50
# Procedure: 1. Experimental objective: The inhibition activity of the example compounds on the phosphorylated ERK level in KRAS G12D mutant cells AGS was determined. 2. Experimental instruments: • 2.1 Instruments: Envison; Pipette (Eppendorf & Rainin) • 2.2 Reagents: AGS cells were purchased from COBIOER BIOSCIENCES CO., LTD, with a catalog number of CBP60476; Phosphorylated ERK1/2 (T202-Y204) LANCE Ultra Cellular Detection Kit was purchased from PerkinElmer, with a catalog number of TRF4000M; RPMI 1640 was purchased from Gibco, with a catalog number of 22400071; FBS was purchased from Gibco, with a catalog number of 10091148; PBS was purchased from Gibco, with a catalog number of 10010023; trypsin was purchased from Gibco, with a catalog number of 25200056; cell culture plates were purchased from Corning Company, with a catalog number of 3610; White opaque OptiPlate™-384 plates were purchased from PerkinElmer, with a catalog number of 6007290. 3. Experimental method: When AGS cells were cultured to appropriate confluence, the AGS cells were collected, and the cell density was adjusted to 4 × 10^5/mL using complete culture medium. The cell suspension was plated onto a 96-well plate at 100 µL per well, and the plate was placed in the incubator at 37°C and 5% CO2 for adherent culture overnight. Solutions of the compound with different concentrations were formulated using DMSO and complete culture medium, and a vehicle control was set up. The solutions of the compound were added to the 96-well plate at 25 µL per well, and the plate was placed in the incubator at 37°C and 5% CO2 for further culture for 2 h. Then, the supernatant of the cell culture plate was discarded, 50 µL of lysis buffer was added to each well, the cells were lysed at room temperature under shaking for 30 min, then placed in a centrifuge and centrifuged at 1000 rpm for 1 min. 15 µL of supernatant was transferred to a 384-well plate, 5 µL of detection mixture was added to each well (Eu-labeled anti-ERK1/2 (T202-Y204) Antibody at a final detection concentration of 0.5 nM and ULight labeled anti-ERK1/2 Antibody at a final detection concentration of 5 nM), centrifuged at 1000 rpm for 1 min, mixed evenly, and reacted at room temperature overnight. The plate was read using Envison and the signal values at the emission wavelengths of 620 nm and 665 nm were detected using a time-resolved fluorescence program. 4. […] Graphpad Prism software was used to fit the concentration and inhibition rate to a nonlinear regression curve, so as to obtain the IC50 value. Table 5: Inhibition activity of the compounds on p-ERK in AGS cells
# [2] = Pharmacokinetic determination in rats (IV and PO, plasma, LCMS/MS); format: in vivo, SD rats; details: male, SD, rat, in vivo
# Procedure, shortened: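 Male SD rats (3/group), fasted overnight, dosed PO at 30 mg/kg in 10% Captisol/50 mM citrate pH 5.0 or IV at 1 mg/kg in 5% DMSO/10% Solutol HS15/85% PBS. Jugular plasma (EDTA-2K) sampled predose to 24 h; analysed by LCMS/MS.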
# [3] = Pharmacokinetic determination in mice (IV and PO, plasma, LCMS/MS); format: in vivo, Balb/c mice; details: male, Balb/c, mouse, in vivo
# Procedure, shortened: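 Male Balb/c mice, fasted overnight (n=3 per route): PO 30 mg/kg in 10% Captisol/50 mM citrate pH 5.0, or IV 1 mg/kg in 5% DMSO/10% Solutol HS15/85% PBS. Orbital blood sampled predose to 24 h; EDTA plasma analysed by LC-MS/MS.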
# [4] = system: human colorectal cancer cell line (GP2D); experiment: Anti-tumor efficacy in mouse transplanted tumor model of human colorectal cancer cell line (GP2D); format: in vivo, mice (BALB/c nude)
# AsPC-1 = experiment: Inhibition of proliferation of KRAS G12D mutant tumor cell line AsPC-1 (CellTiter-Glo); format: cell-based; details: Homo sapiens, ASPC1, about 72 h
# Procedure: 1. Experimental objective: The inhibition activity of the example compounds on the proliferation of 5 KRAS G12D mutant cell lines SNU-1, HPAF-II, Panc0403, AsPC-1 and GP2D was determined. 2. Experimental instruments: • 2.1 Instruments: Microplate reader (BioTek Synergy H1); Pipette (Eppendorf & Rainin). • 2.2 Reagents: HPAF-II, PANC0403, AsPC-1 and GP2D were purchased from COBIOER BIOSCIENCES CO., LTD; SNU-1 was purchased from the cell bank of Chinese Academy of Sciences, Cell Titer-Glo was purchased from Promega, with a catalog number of G7573; RPMI 1640 was purchased from Gibco, with a catalog number of 22400089; DMEM was purchased from Gibco, with a catalog number of 11995065; FBS was purchased from Gibco, with a catalog number of 10091148; PBS was purchased from Gibco, with a catalog number of 10010023; trypsin was purchased from Gibco, with a catalog number of 25200056; cell culture plates were purchased from Corning Company, with a catalog number of 3610. 3. Experimental method: When SNU-1, HPAF-II, Panc0403, AsPC-1 or GP2D cells were cultured to the appropriate confluence, and the SNU-1, HPAF-II, Panc0403, AsPC-1 or GP2D cells were collected. The cells were adjusted to the appropriate cell density using complete culture medium, the cell suspension was plated onto a 96-well plate at 90 µL per well, and the plate was placed in the incubator at 37°C and 5% CO2 for adherent culture overnight. Solutions of the compound with different concentrations were formulated using DMSO and culture medium. A vehicle control was set up. The solutions of the compound were added to the 96-well plate at 10 µL per well, and the plate was placed in the incubator at 37°C and 5% CO2 for further culture for about 72 h. Then, CellTiter-Glo solution was added, and the obtained mixture was shaken and mixed evenly, incubated in the dark for 10 min, and read with a BioTek Synergy H1 microplate reader. 4. Experimental data processing method: The luminescence signal value was used to calculate the inhibition rate. Graphpad Prism software was used to fit the concentration and inhibition rate to a nonlinear regression curve, so as to obtain the IC50 value. 5. Experimental results: Table 2: Determination of the inhibition activity of the compounds on the proliferation of KRAS G12D mutant tumor cell line GP2D
compound,measurement,setting,value
C#Cc1c(F)ccc2cc(O)cc(-c3nc4c5c(nc(OCC6(CN7CC8CC(=C(F)F)CC8C7)CC6)nc5c3F)N3CC5CCC(N5)C3CO4)c12 (stereo not drawn) [Example 17-1],IC50,KRAS G12D-SOS1,2.6 nM
same,IC50,KRAS WT,58 nM
same,IC50,"GP2D; Homo sapiens, GP2d, 72 h",1.2 nM
"3-chloro-5-((5S,5aS,6R,9S)-5-ethyl-1-fluoro-12-((1-((4-(fluoromethylene)piperidin-1-yl)methyl-d2)cyclopropyl)methoxy-d2)-5a,6,7,8,9,10-hexahydro-5H-4-oxa-3,10a,11,13,14-pentaaza-6,9-methylnaphtho[1,8-ab]hept-2-yl)-4-(trifluoromethyl)aniline [Example 330]","Tumor volume (mm^3, Mean ± SD) Day 0",[1],468 mm^3
same,TGI(%) Day 14,[1],110.18%
same,ΔT/ΔC(%) Day 14,[1],43.78%
same,"Tumor volume (mm^3, Mean ± SD) Day 21",[1],418 mm^3
same,IC50,"p-ERK in AGS cells; AGS cells, 2 h with compound",3.8 nM
same,IC50,"GP2D; proliferation, about 72 h, CellTiter-Glo",0.17 nM
"C#Cc1c(F)ccc2cc(O)cc(-c3ncc4c(N5CC6CCC(C5)N6)nc(OC[C@@]56CCCN5C[C@H](F)C6)nc4c3F)c12 [MRTX-1133, reference compound]",AUC,"[2]; iv, 1 mg/kg",367 ng·h/mL
same,C0,"[2]; iv, 1 mg/kg",2490 ng/mL
same,clearance,"[2]; iv, 1 mg/kg",45 mL/min/kg
same,half-life,"[2]; iv, 1 mg/kg",2.7 h
same,Cmax,"[2]; po, 30 mg/kg",11 ng/mL
same,Tmax,"[2]; po, 30 mg/kg",2 h
same,AUC,"[3]; iv, 1 mg/kg",305 ng·h/mL
same,C0,"[3]; iv, 1 mg/kg",854 ng/mL
same,clearance,"[3]; iv, 1 mg/kg",55 mL/min/kg
same,half-life,"[3]; iv, 1 mg/kg",11.1 h
same,Cmax,"[3]; po, 30 mg/kg",11 ng/mL
same,Tmax,"[3]; po, 30 mg/kg",2 h
same,"Tumor volume (mm^3, Mean ± SD) Day 0","[4]; 10mpk, IV*BID, Day 0",167 mm^3
same,TGI(%) Day 14,"[4]; 10mpk, IV*BID, Day 14",143.79%
same,"Tumor volume (mm^3, Mean ± SD) Day 14","[4]; 10mpk, IV*BID, Day 14",94 mm^3
same,ΔT/ΔC(%) Day 14,"[4]; 10mpk, IV*BID, Day 14",11.89%
same,tumor inhibition effect (in words),[4]; intravenous administration dose of 10 mg/kg,inhibition effect of tumor regression
"[2H]C([2H])([2H])[C@@H]1Oc2nc(-c3cc(N)cc(Cl)c3C(F)(F)F)c(F)c3nc(OC([2H])([2H])C4(C([2H])([2H])N5CCC(=NOC)CC5)CC4)nc(c23)N2C[C@H]3CC[C@H](N3)[C@@H]12 [Example 341, 1-((1-((((5S,5aS,6S,9R)-2-(5-amino-3-chloro-2-(trifluoromethyl)phenyl)-1-fluoro-5-(methyl-d3)-5a,6,7,8,9,10-hexahydro-5H-4-oxa-3,10a,11,13,14-pentaaza-6,9-methylnaphtho[1,8-ab]heptene-12-yl)oxy)methyl-d2)cyclopropyl)methyl-d2)piperidin-4-one O-methyloxime]","Tumor volume (mm^3, Mean ± SD) Day 0",[1],469 mm^3
same,TGI(%) Day 14,[1],161.42%
same,ΔT/ΔC(%) Day 14,[1],18.73%
same,"Tumor volume (mm^3, Mean ± SD) Day 21",[1],180 mm^3
same,IC50,"p-ERK in AGS cells; Homo sapiens, AGS, 2 h",4.2 nM
same,IC50,AsPC-1,2.6 nM
same,IC50,"GP2D; Homo sapiens, GP2d, 72 h",0.1 nM
